PubChem BioAssay (NCI)
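Growth conditions: 96-well plates. Treatment: test compound, 48 hours, 5 concentrations. Analysis: linear interpolation between bracketing concentrations; unreached endpoints set to highest concentration. TGI: total growth inhibition.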

Tests used:
Assay in all cases: NCI-60 cell line screen, 48 h
786-0 renal = test system: 786-0 renal
A498 renal = test system: A498 renal
A549 NSCLC = test system: A549 NSCLC
ACHN renal = test system: ACHN renal
BT-549 breast = test system: BT-549 breast
CAKI-1 renal = test system: CAKI-1 renal
CCRF-CEM leukemia = test system: CCRF-CEM leukemia
COLO 205 colon = test system: COLO 205 colon
DU-145 prostate = test system: DU-145 prostate
EKVX NSCLC = test system: EKVX NSCLC
HCC-2998 colon = test system: HCC-2998 colon
HCT-116 colon = test system: HCT-116 colon
HCT-15 colon = test system: HCT-15 colon
HL-60(TB) leukemia = test system: HL-60(TB) leukemia
HOP-62 NSCLC = test system: HOP-62 NSCLC
HOP-92 NSCLC = test system: HOP-92 NSCLC
HS 578T breast = test system: HS 578T breast
HT29 colon = test system: HT29 colon
IGROV1 ovarian = test system: IGROV1 ovarian
K-562 leukemia = test system: K-562 leukemia
KM12 colon = test system: KM12 colon
LOX IMVI melanoma = test system: LOX IMVI melanoma
M14 melanoma = test system: M14 melanoma
MALME-3M melanoma = test system: MALME-3M melanoma
MCF7 breast = test system: MCF7 breast
MDA-MB-231 breast = test system: MDA-MB-231 breast
MDA-MB-435 = test system: MDA-MB-435
MDA-N = test system: MDA-N
MOLT-4 leukemia = test system: MOLT-4 leukemia
NCI-H226 lung = test system: NCI-H226 lung
NCI-H23 lung = test system: NCI-H23 lung
NCI-H460 lung = test system: NCI-H460 lung
NCI-H522 lung = test system: NCI-H522 lung
NCI/ADR-RES ovarian = test system: NCI/ADR-RES ovarian
OVCAR-3 ovarian = test system: OVCAR-3 ovarian
OVCAR-4 ovarian = test system: OVCAR-4 ovarian
OVCAR-5 ovarian = test system: OVCAR-5 ovarian
OVCAR-8 ovarian = test system: OVCAR-8 ovarian
PC-3 prostate = test system: PC-3 prostate
RPMI-8226 leukemia = test system: RPMI-8226 leukemia
RXF 393 renal = test system: RXF 393 renal
SF-268 CNS = test system: SF-268 CNS
SF-295 CNS = test system: SF-295 CNS
SF-539 CNS = test system: SF-539 CNS
SK-MEL-2 melanoma = test system: SK-MEL-2 melanoma
SK-MEL-28 melanoma = test system: SK-MEL-28 melanoma
SK-MEL-5 melanoma = test system: SK-MEL-5 melanoma
SK-OV-3 ovarian = test system: SK-OV-3 ovarian
SN12C renal = test system: SN12C renal
SNB-19 CNS = test system: SNB-19 CNS
SNB-75 CNS = test system: SNB-75 CNS
SR leukemia = test system: SR leukemia
SW-620 colon = test system: SW-620 colon
T-47D breast = test system: T-47D breast
TK-10 renal = test system: TK-10 renal
U251 CNS = test system: U251 CNS
UACC-257 melanoma = test system: UACC-257 melanoma
UACC-62 melanoma = test system: UACC-62 melanoma
UO-31 renal = test system: UO-31 renal

## CN(CCn1cnc2c1c(=O)n(C)c(=O)n2C)C1CCCCC1
786-0 renal
  TGI: > 100 µM
A498 renal
  TGI: > 100 µM
A549 NSCLC
  TGI: > 100 µM
ACHN renal
  TGI: > 100 µM
BT-549 breast
  TGI: > 100 µM
CAKI-1 renal
  TGI: > 100 µM
CCRF-CEM leukemia
  TGI: > 100 µM
COLO 205 colon
  TGI: > 100 µM
DU-145 prostate
  TGI: > 100 µM
EKVX NSCLC
  TGI: > 100 µM
HCC-2998 colon
  TGI: > 100 µM
HCT-116 colon
  TGI: > 100 µM
HCT-15 colon
  TGI: > 100 µM
HL-60(TB) leukemia
  TGI: > 100 µM
HOP-62 NSCLC
  TGI: > 100 µM
HOP-92 NSCLC
  TGI: > 100 µM
HS 578T breast
  TGI: > 100 µM
HT29 colon
  TGI: > 100 µM
IGROV1 ovarian
  TGI: > 100 µM
K-562 leukemia
  TGI: > 100 µM
KM12 colon
  TGI: > 100 µM
LOX IMVI melanoma
  TGI: > 100 µM
M14 melanoma
  TGI: > 100 µM
MALME-3M melanoma
  TGI: > 100 µM
MCF7 breast
  TGI: > 100 µM
MDA-MB-231 breast
  TGI: > 100 µM
MDA-MB-435
  TGI: > 100 µM
MDA-N
  TGI: > 100 µM
MOLT-4 leukemia
  TGI: > 100 µM
NCI-H226 lung
  TGI: > 100 µM
NCI-H23 lung
  TGI: > 100 µM
NCI-H460 lung
  TGI: > 100 µM
NCI-H522 lung
  TGI: > 100 µM
NCI/ADR-RES ovarian
  TGI: > 100 µM
OVCAR-3 ovarian
  TGI: > 100 µM
OVCAR-4 ovarian
  TGI: > 100 µM
OVCAR-5 ovarian
  TGI: > 100 µM
OVCAR-8 ovarian
  TGI: > 100 µM
PC-3 prostate
  TGI: > 100 µM
RPMI-8226 leukemia
  TGI: > 100 µM
RXF 393 renal
  TGI: > 100 µM
SF-268 CNS
  TGI: > 100 µM
SF-295 CNS
  TGI: > 100 µM
SF-539 CNS
  TGI: > 100 µM
SK-MEL-2 melanoma
  TGI: > 100 µM
SK-MEL-28 melanoma
  TGI: > 100 µM
SK-MEL-5 melanoma
  TGI: > 100 µM
SK-OV-3 ovarian
  TGI: > 100 µM
SN12C renal
  TGI: > 100 µM
SNB-19 CNS
  TGI: > 100 µM
SNB-75 CNS
  TGI: > 100 µM
SR leukemia
  TGI: > 100 µM
SW-620 colon
  TGI: > 100 µM
T-47D breast
  TGI: > 100 µM
TK-10 renal
  TGI: > 100 µM
U251 CNS
  TGI: > 100 µM
UACC-257 melanoma
  TGI: > 100 µM
UACC-62 melanoma
  TGI: > 100 µM
UO-31 renal
  TGI: > 100 µM

## COC(=O)[C@]1(c2cc3ccccc3n2S(=O)(=O)c2ccccc2)CC2CN(C(C)=O)C1CC2=O (some centres not stated)
786-0 renal
  TGI: 2.97 µM
A498 renal
  TGI: 21.4 µM
A549 NSCLC
  TGI: 13.1 µM
ACHN renal
  TGI: 3.97 µM
BT-549 breast
  TGI: 7.24 µM
CAKI-1 renal
  TGI: 7.79 µM
COLO 205 colon
  TGI: 7.29 µM
DU-145 prostate
  TGI: 11.7 µM
EKVX NSCLC
  TGI: 6.17 µM
HCC-2998 colon
  TGI: 14 µM
HCT-116 colon
  TGI: 4.2 µM
HCT-15 colon
  TGI: 9.06 µM
HL-60(TB) leukemia
  TGI: 4.64 µM
HOP-62 NSCLC
  TGI: 16.4 µM
HOP-92 NSCLC
  TGI: 16.5 µM
HS 578T breast
  TGI: > 43.8 µM
HT29 colon
  TGI: 4.55 µM
IGROV1 ovarian
  TGI: 5.22 µM
K-562 leukemia
  TGI: 12.1 µM
KM12 colon
  TGI: 8.22 µM
LOX IMVI melanoma
  TGI: 3.8 µM
M14 melanoma
  TGI: 4.63 µM
MALME-3M melanoma
  TGI: 6.69 µM
MCF7 breast
  TGI: 3.37 µM
MDA-MB-231 breast
  TGI: 7.4 µM
MDA-MB-435
  TGI: 6.32 µM
MDA-N
  TGI: 9.32 µM
MOLT-4 leukemia
  TGI: 4.85 µM
NCI-H226 lung
  TGI: 10.4 µM
NCI-H23 lung
  TGI: 9.38 µM
NCI-H460 lung
  TGI: 10.9 µM
NCI-H522 lung
  TGI: 4.62 µM
NCI/ADR-RES ovarian
  TGI: > 40.4 µM
OVCAR-3 ovarian
  TGI: 6.03 µM
OVCAR-4 ovarian
  TGI: 10.7 µM
OVCAR-5 ovarian
  TGI: 13.1 µM
OVCAR-8 ovarian
  TGI: 11.1 µM
PC-3 prostate
  TGI: 3.83 µM
RPMI-8226 leukemia
  TGI: 4.26 µM
RXF 393 renal
  TGI: 3.39 µM
SF-268 CNS
  TGI: 5.83 µM
SF-295 CNS
  TGI: 30.1 µM
SF-539 CNS
  TGI: 12.7 µM
SK-MEL-2 melanoma
  TGI: 7.52 µM
SK-MEL-28 melanoma
  TGI: 11.7 µM
SK-MEL-5 melanoma
  TGI: 14 µM
SK-OV-3 ovarian
  TGI: 21.7 µM
SN12C renal
  TGI: 8.11 µM
SNB-19 CNS
  TGI: 12.5 µM
SNB-75 CNS
  TGI: 12.3 µM
SR leukemia
  TGI: 5.12 µM
SW-620 colon
  TGI: > 20.9 µM
T-47D breast
  TGI: 7.05 µM
TK-10 renal
  TGI: 23.4 µM
U251 CNS
  TGI: 3.08 µM
UACC-257 melanoma
  TGI: 7.8 µM
UACC-62 melanoma
  TGI: 3.27 µM
UO-31 renal
  TGI: 3.45 µM
